Laboratory results from ChEMBL document CHEMBL5247615, “Discovery of 5-(3,4-dihydroxybenzylidene)-1,3-dimethylpyrimidine- 2,4,6(1H,3H,5H)-trione as a novel and effective cardioprotective agent via dual anti-inflammatory and anti-oxidative activities” (Eur J Med Chem, 2022).
Active and inactive are the calls of the source. No cut-off for these calls is given here.

Assays:
Rattus norvegicus [1] = experiment: Cardioprotective activity in myocardial ischemia/reperfusion induced ip dosed Sprague-Dawley rat injury model assessed as increase in heart AST level administered once a day for 2 weeks; type: functional, organism-based; conditions: dose 5-20 mg/kg
H9c2 [2] = experiment: Cardioprotective activity against hydrogen peroxide induced cell injury in rat H9c2 cells assessed as increase in cell viability at 5 to 20 uM measured after 24 hrs by MTT assay; type: functional, cell-based; conditions: dose 5-20 µM
H9c2 [3] = experiment: Cardioprotective activity against hydrogen peroxide induced cell injury in rat H9c2 cells assessed as increase in cell viability at 5 uM measured after 24 hrs by MTT assay; type: functional
Rattus norvegicus [4] = experiment: Cardioprotective activity in myocardial ischemia/reperfusion induced Sprague-Dawley rat injury model assessed as reduction in heart cardiac infarct size at 20 mg/kg, ip administered once a day for 2 weeks measured by Evans blue staining analysis (reference value: 46.8%); type: functional; parameters: scale not given: the % may be the effect or the level left
Rattus norvegicus [5] = experiment: Cardioprotective activity in myocardial ischemia/reperfusion induced Sprague-Dawley rat injury model assessed as reduction in cardiac infarct size at 10 mg/kg, ip administered once a day for 2 weeks measured by Evans blue staining analysis (reference value: 46.8%); type: functional, Heart; parameters: scale not given: the % may be the effect or the level left
H9c2 [6] = experiment: Cardioprotective activity against hydrogen peroxide induced cell injury in rat H9c2 cells at 5 to 20 uM pretreated with compound for 24 hrs followed by hydrogen peroxide addition for 2 hrs by MTT assay; type: functional, cell-based; conditions: dose 5-20 µM, time 26.0 hrs
Rattus norvegicus [7] = experiment: Antiinflammatory activity in myocardial ischemia/reperfusion induced ip dosed Sprague-Dawley rat injury model assessed as decrease in IL-1beta protein expression in heart administered once a day for 2 weeks by Western blotting analysis; type: functional, organism-based; conditions: dose 5-20 mg/kg
Rattus norvegicus [8] = experiment: Antiinflammatory activity in myocardial ischemia/reperfusion induced Sprague-Dawley rat injury model assessed as decrease in IL-1beta protein expression in heart at 10 mg/kg, ip administered once a day for 2 weeks by Western blotting analysis; type: functional, organism-based
H9c2 [9] = experiment: Antioxidant activity in hydrogen peroxide induced rat H9c2 cells assessed as increase in SOD expression pretreated with compound for 24 hrs followed by treatment with hydrogen peroxide for 2 hrs; type: functional, cell-based; conditions: dose 5-20 µM, time 26.0 hrs
H9c2 [10] = experiment: Antioxidant activity in hydrogen peroxide induced rat H9c2 cells assessed as increase in HO-1 expression pretreated with compound for 24 hrs followed by treatment with hydrogen peroxide for 2 hrs; type: functional, cell-based; conditions: dose 5-20 µM, time 26.0 hrs
H9c2 [11] = experiment: Antiinflammatory activity in hydrogen peroxide induced rat H9c2 cells assessed as reversal of increase in NLRP-3 mRNA expression pretreated with compound for 24 hrs followed by treatment with hydrogen peroxide for 2 hrs; type: functional, cell-based; conditions: dose 5-20 µM, time 26.0 hrs
Rattus norvegicus [12] = experiment: Antioxidant activity in myocardial ischemia/reperfusion induced Sprague-Dawley rat injury model assessed as […] Nrf2 expression administered at 10 mg/kg, ip once a day for 2 weeks by Western blotting analysis; type: functional, organism-based
H9c2 [13] = experiment: Inhibition of autophagy in hydrogen peroxide induced rat H9c2 cells assessed as down regulation of […] mRNA level at 5 to 20 uM pretreated with compound for 24 hrs followed by treatment with hydrogen peroxide for 2 hrs; type: functional, cell-based; conditions: dose 5-20 µM, time 26.0 hrs
Rattus norvegicus [14] = experiment: Antiinflammatory activity in myocardial ischemia/reperfusion induced ip dosed Sprague-Dawley rat injury model assessed as increase in CAT activity administered once a day for 2 weeks by Western blotting analysis; type: functional, organism-based; conditions: dose 5-20 mg/kg
H9c2 [15] = experiment: Cytotoxicity against rat H9c2 cells assessed as reduction in cell viability upto 100 uM measured after 24 hrs by MTT assay relative to control; type: toxicity, cell-based; conditions: h9c2, 24 h
H9c2 [16] = experiment: Cardioprotective activity against hydrogen peroxide induced cell injury in rat H9c2 cells assessed as reduction in loss of cell membrane integrity by measuring LDH level at 10 uM pretreated with compound for 24 hrs followed by treatment with hydrogen peroxide for 2 hrs relative to control; type: functional; parameters: scale not given: the % may be the effect or the level left
H9c2 [17] = experiment: Cardioprotective activity against hydrogen peroxide induced cell injury in rat H9c2 cells assessed as reversal of abnormal cell morphology pretreated with compound for 24 hrs followed by treatment with hydrogen peroxide for 2 hrs; type: functional, cell-based; conditions: dose 5-20 µM, time 26.0 hrs
Rattus norvegicus [18] = experiment: Antiinflammatory activity in myocardial ischemia/reperfusion induced ip dosed Sprague-Dawley rat injury model assessed as decrease in MDA level administered once a day for 2 weeks by Western blotting analysis; type: functional, organism-based; conditions: dose 5-20 mg/kg
H9c2 [19] = experiment: Cardioprotective activity against hydrogen peroxide induced cell injury in rat H9c2 cells assessed as reduction in loss of cell membrane integrity by measuring LDH level at 5 uM pretreated with compound for 24 hrs followed by treatment with hydrogen peroxide for 2 hrs relative to control; type: functional; parameters: scale not given: the % may be the effect or the level left
H9c2 [20] = experiment: Inhibition of autophagy in hydrogen peroxide induced rat H9c2 cells assessed as down regulation of p62 mRNA level at 5 to 20 uM pretreated with compound for 24 hrs followed by treatment with hydrogen peroxide for 2 hrs; type: functional, cell-based; conditions: dose 5-20 µM, time 26.0 hrs
Rattus norvegicus [21] = experiment: Cardioprotective activity in myocardial ischemia/reperfusion induced Sprague-Dawley rat injury model assessed as decrease in ST-segment elevation at 5 to 20 mg/kg, ip administered once a day for 2 weeks measured by electrocardiogram; type: functional, organism-based; conditions: dose 5-20 mg/kg
H9c2 [22] = experiment: Antiinflammatory activity in hydrogen peroxide induced rat H9c2 cells assessed as reversal of increase in IL-18 mRNA expression pretreated with compound for 24 hrs followed by treatment with hydrogen peroxide for 2 hrs; type: functional, cell-based; conditions: dose 5-20 µM, time 26.0 hrs
Rattus norvegicus [23] = experiment: Antiinflammatory activity in myocardial ischemia/reperfusion induced ip dosed Sprague-Dawley rat injury model assessed as decrease in NLRP3 protein expression in heart administered once a day for 2 weeks by Western blotting analysis; type: functional, organism-based; conditions: dose 5-20 mg/kg
H9c2 [24] = experiment: Antioxidant activity in hydrogen peroxide induced rat H9c2 cells assessed as increase in Nrf2 expression pretreated with compound for 24 hrs followed by treatment with hydrogen peroxide for 2 hrs; type: functional, cell-based; conditions: dose 5-20 µM, time 26.0 hrs
H9c2 [25] = experiment: Cardioprotective activity against hydrogen peroxide induced cell injury in rat H9c2 cells assessed as reduction in loss of cell membrane integrity by measuring LDH level at 20 uM pretreated with compound for 24 hrs followed by treatment with hydrogen peroxide for 2 hrs relative to control; type: functional; parameters: scale not given: the % may be the effect or the level left
H9c2 [26] = experiment: Antiinflammatory activity in hydrogen peroxide induced rat H9c2 cells assessed as reversal of increase in IL-1beta mRNA expression pretreated with compound for 24 hrs followed by treatment with hydrogen peroxide for 2 hrs; type: functional, cell-based; conditions: dose 5-20 µM, time 26.0 hrs
Rattus norvegicus [27] = experiment: Cardioprotective activity in myocardial ischemia/reperfusion induced ip dosed Sprague-Dawley rat injury model assessed as increase in heart LDH level administered once a day for 2 weeks; type: functional, organism-based; conditions: dose 5-20 mg/kg
H9c2 [28] = experiment: Cardioprotective activity against hydrogen peroxide induced cell injury in rat H9c2 cells at 40 uM pretreated for 24 hrs followed by treatment with hydrogen peroxide for 2 hrs by MTT assay; type: functional, cell-based; conditions: time 26.0 hrs

With `CN1C(=O)C(=Cc2ccc(O)c(O)c2)C(=O)N(C)C1=O` the Activity (Rattus norvegicus [1]) was “Dose-Dependent Effect”, the Activity (H9c2 [2]) was “Active” and the Activity (H9c2 [3]) was 77.5%. The Activity (Rattus norvegicus [4]) was 22.3%, the Activity (Rattus norvegicus [5]) was 32.3% and the Activity (H9c2 [6]) was “Active”. For the same compound, the Activity (Rattus norvegicus [7]) was “Active”, the Activity (Rattus norvegicus [8]) was “Active” and the Activity (H9c2 [9]) was “Dose-Dependent Effect”. For the same compound, the Activity (H9c2 [10]) was “Dose-Dependent Effect”, the Activity (H9c2 [11]) was “Dose-Dependent Effect” and the Activity (Rattus norvegicus [12]) was “inactive”. For the same compound, the inhibition (H9c2 [13]) was “Active”, the Activity (Rattus norvegicus [14]) was “Active” and the Activity (H9c2 [15]) was “Non-Toxic”. The Activity (H9c2 [16]) was 35.6%, the Activity (H9c2 [17]) was “Dose-Dependent Effect” and the Activity (Rattus norvegicus [18]) was “Active”. For the same compound, the Activity (H9c2 [19]) was 15.3%, the inhibition (H9c2 [20]) was “Active” and the Activity (Rattus norvegicus [21]) was “Active”. The Activity (H9c2 [22]) was “Dose-Dependent Effect”, the Activity (Rattus norvegicus [23]) was “Active” and the Activity (H9c2 [24]) was “Dose-Dependent Effect”. For the same compound, the Activity (H9c2 [25]) was 60.7%, the Activity (H9c2 [26]) was “Dose-Dependent Effect” and the Activity (Rattus norvegicus [27]) was “Dose-Dependent Effect”.

In the case of `O=c1cc(-c2ccc(O)c(O)c2)oc2cc(O)cc(O)c12`, the Activity (H9c2 [28]) is reported as “Active”.

`CN1C(=O)C(=Cc2ccccc2O)C(=O)N(C)C1=O` was tested, and the Activity (H9c2 [2]) was “Active” and the Activity (H9c2 [3]) was 40.3%.

`COCCc1ccc(OCC(O)CNC(C)C)cc1` (stereo not drawn) was tested, and the Activity (H9c2 [28]) was “Active”.

With `Cc1ccc(O)c(C=C2C(=O)N(C)C(=O)N(C)C2=O)c1` the Activity (H9c2 [6]) was “Active”.

`CN1C(=O)C(=Cc2cccc(O)c2O)C(=O)N(C)C1=O` was tested, and the Activity (H9c2 [6]) was “Active”.
